Test results: patent publication US11104648B2, “Pyrazole derivative” (Zhejiang Research Institute of Chemical Industry Co., Ltd., priority 2018, dated 2021)
Where two headings read alike, the source gives them in different places.

Tests used:
Assay type in all cases: in vivo
[1] = system: Eggs of Tetranychus Cinnabarinus; assay: Activity assay of eggs of Tetranychus cinnabarinus (spray method, ovicidal); conditions: for pest or weed control at 5 µg/mL / pest or weed control at 2 µg/mL: Tetranychus cinnabarinus
Description: According to the solubility of the test compound, the crude drug was dissolved in N N-dimethylformamide, and then prepared into a test solution of the desired concentration with 1‰ Tween 80 aqueous solution. The content of N. N-dimethylformamide in the solution should not exceed 10%.
Spray method. The broad bean leaves with petioles were cut and inserted into a bottle with water. A certain number of female mites were placed, 24h later, adult mites were removed, and spray treatment was performed in 24 h. The experiment was repeated three times, and a blank control was set, and placed to an observation room (26±2° C., humidity 70%˜80%, 16h light per day) for culture. When the blank control group was incubated, the results were investigated. The non-incubated ones were used as death for investigation.

[2] = system: adult Tetranychus cinnabarinus; assay: Activity assay of adult Tetranychus cinnabarinus (whole-plant spray on bean seedlings); conditions: 48 h; for pest or weed control at 1.25 µg/mL: concentration 1.25 mg/L
Description: According to the solubility of the test compound, the crude drug was dissolved in N, N-dimethlfornamide, and then prepared into a test solution of the desired concentration with 1‰ Tween 80 aqueous solution. The content of N,N-dimethylformamide in the solution should not exceed 10%.
Two euphylla bean seedlings were taken, after inoculated with adult Tetranychus cinnabarinus and the base number was investigated, whole plants were sprayed with a hand-held sprayer. The experiment was repeated three times for each treatment, after treatment, placed in a standard observation room after treatment, to investigate the survival number of mites in 48 hand calculate the death rate.

[3] = system: Tetranychus cinnabarinus Nymphs; assay: Activity assay of Tetranychus cinnabarinus nymphs (spray on broad bean leaves)
Description: According to the solubility of the test compound, the crude drug was dissolved in N, N-dimethylformamide, and then prepared into a test solution of the desired concentration with 1‰ Tween 80 aqueous solution. The content of N,N-dimethylformamide in the solution should not exceed 10%.
The broad bean leaves with petioles were cut and inserted into a small bottle with water. A certain number of brightly colored, active female adult mites were placed, 24h later, adult mites were removed, and leaves with insufficient eggs were removed. When eggs were hatched and grew into nymphs, spray treatment was performed. The experiment was repeated three times, and a blank control was set, and placed to an observation room (26±2° C., humidity 70%˜80%, 16h light per day) for culture. 48 h later, the results were investigated. The nymphs were gently touched during investigation, and if no response, they were regarded as deaths.

[4] = concentration 5 mg/L, spray, non-incubated eggs counted as dead, read-out: ovicidal activity
[5] = concentration 2.5 mg/L, read-out: adult mite-killing activity
[6] = 48 h, concentration 2.5 mg/L, read-out: nymph-killing activity
[7] = concentration 2.5 mg/L, 48 h, read-out: nymph-killing activity
[8] = concentration 2 mg/L, spray, read-out: ovicidal activity
[9] = read-out: adult mite-killing activity
[10] = 48 h, concentration 2 mg/L, read-out: nymph-killing activity
[11] = eggs, concentration 2 mg/L, parallel determination, read-out: Death rate (%)
[12] = adult mites, parallel determination, read-out: Death rate (%)
[13] = 48 h, nymphs, concentration 0.5 mg/L, parallel determination, read-out: Death rate (%)

SMILES | pest or weed control at 5 µg/mL [1, 4] [%] | pest or weed control at 2.5 µg/mL [2, 5] [%] | pest or weed control at 2.5 µg/mL [3, 6] [%] | also measured
CCSC(=O)OCO/C(=C(/C#N)c1ccc(C(C)(C)C)cc1)c1cc(C)nn1CC [Compound 576] | ≥ 90 | ≥ 90 | ≥ 95 | –
CCCCC(=O)OC(C)O/C(=C(/C#N)c1ccc(C(C)(C)C)cc1)c1c(Cl)c(C)nn1CC (stereo not shown) [Compound 331] | ≥ 90 | ≥ 90 | ≥ 95 | –
CCn1nc(C)cc1/C(OC(C)OC(=O)OCCOC)=C(\C#N)c1ccc(C(C)(C)C)cc1 (stereo not shown) [Compound 596] | ≥ 90 | ≥ 90 | ≥ 95 | –
Cc1nn(C)c(/C(OC(C)OC(=O)C(C)(C)C)=C(\C#N)c2ccc(C(C)(C)C)cc2)c1C (stereo not shown) [Compound 180] | ≥ 90 | ≥ 90 | ≥ 95 | –
CCn1nc(C)c(Cl)c1/C(OC(C)OC(=O)Cc1ccccc1)=C(\C#N)c1ccc(C(C)(C)C)cc1 (stereo not shown) [Compound 340] | ≥ 90 | ≥ 90 | – | pest or weed control at 2.5 µg/mL [3, 7]: ≥ 95%
CCn1nc(C)c(C)c1/C(OC(C)OC(=O)OC)=C(\C#N)c1ccc(C(C)(C)C)cc1 (stereo not shown) [Compound 963] | ≥ 90 | ≥ 90 | ≥ 95 | pest or weed control at 2 µg/mL [1, 8]: ≥ 90%; pest or weed control at 1.25 µg/mL [2, 9]: ≥ 90%; pest or weed control at 2 µg/mL [3, 10]: ≥ 90%
CCn1nc(C)cc1/C(OC(C)OC(=O)CF)=C(\C#N)c1ccc(C(C)(C)C)cc1 (stereo not shown) [Compound 262] | – | – | – | pest or weed control at 5 µg/mL ([1]; read-out: ovicidal activity): ≥ 90%; pest or weed control at 2.5 µg/mL [2, 9]: ≥ 90%; pest or weed control at 2.5 µg/mL ([3]; 48 h, read-out: nymph-killing activity): ≥ 95%
CCCC(=O)OCO/C(=C(/C#N)c1ccc(C(C)(C)C)cc1)c1c(Cl)c(C)nn1C [Compound 78] | ≥ 90 | ≥ 90 | ≥ 95 | –
CCCC(=O)OCO/C(=C(/C#N)c1ccc(C(C)(C)C)cc1)c1c(Cl)c(C)nn1CC [Compound 303] | ≥ 90 | ≥ 90 | ≥ 95 | –
CCn1nc(C)c(Cl)c1/C(OC(C)OC(=O)CC(C)C)=C(\C#N)c1ccc(C(C)(C)C)cc1 (stereo not shown) [Compound 332] | ≥ 90 | ≥ 90 | ≥ 95 | –
CCn1nc(C)cc1/C(OCOC(=O)CC(C)C)=C(\C#N)c1ccc(C(C)(C)C)cc1 [Compound 232] | ≥ 90 | ≥ 90 | ≥ 95 | –
CCCCC(=O)OC(C)O/C(=C(/C#N)c1ccc(C(C)(C)C)cc1)c1c(C)c(C)nn1C (stereo not shown) [Compound 181] | ≥ 90 | ≥ 90 | ≥ 95 | –
CCCC(=O)OC(C)O/C(=C(/C#N)c1ccc(C(C)(C)C)cc1)c1c(C)c(C)nn1CC (stereo not shown) [Compound 403] | ≥ 90 | ≥ 90 | ≥ 95 | –
Cc1cc(/C(OC(C)OC(=O)c2ccccc2)=C(\C#N)c2ccc(C(C)(C)C)cc2)n(C)n1 (stereo not shown) [Compound 39] | ≥ 90 | ≥ 90 | ≥ 95 | –
CCCCCOC(=O)OCO/C(=C(/C#N)c1ccc(C(C)(C)C)cc1)c1cc(C)nn1C [Compound 460] | ≥ 90 | ≥ 90 | ≥ 95 | –
CSCCOC(=O)OCO/C(=C(/C#N)c1ccc(C(C)(C)C)cc1)c1cc(C)nn1C [Compound 471] | ≥ 90 | ≥ 90 | ≥ 95 | –
Cc1cc(/C(OCOC(=O)CC(C)C)=C(\C#N)c2ccc(C(C)(C)C)cc2)n(C)n1 [Compound 7] | ≥ 90 | ≥ 90 | ≥ 95 | –
CCC(C)(C)C(=O)OCO/C(=C(/C#N)c1ccc(C(C)(C)C)cc1)c1c(C)c(C)nn1C [Compound 166] | ≥ 90 | ≥ 90 | ≥ 95 | –
CCn1nc(C)c(Cl)c1/C(OCOC(=O)Cc1ccccc1)=C(\C#N)c1ccc(C(C)(C)C)cc1 [Compound 315] | ≥ 90 | ≥ 90 | – | pest or weed control at 2.5 µg/mL [3, 7]: ≥ 95%
CCC(=O)OCO/C(=C(/C#N)c1ccc(C(C)(C)C)cc1)c1cc(C)nn1CC [Compound 227] | ≥ 90 | ≥ 90 | ≥ 95 | pest or weed control at 2 µg/mL [1, 8]: ≥ 90%; pest or weed control at 2 µg/mL [1, 11]: 97%; pest or weed control at 1.25 µg/mL [2, 12]: 98%; pest or weed control at 1.25 µg/mL [2, 9]: ≥ 90%; pest or weed control at 2 µg/mL [3, 10]: ≥ 90%; pest or weed control at 0.5 µg/mL [3, 13]: 94%
Cc1nn(C)c(/C(OCOC(=O)Cc2ccccc2)=C(\C#N)c2ccc(C(C)(C)C)cc2)c1C [Compound 165] | ≥ 90 | ≥ 90 | – | pest or weed control at 2.5 µg/mL [3, 7]: ≥ 95%
CCCCCOC(=O)OC(C)O/C(=C(/C#N)c1ccc(C(C)(C)C)cc1)c1cc(C)nn1CC (stereo not shown) [Compound 588] | ≥ 90 | ≥ 90 | ≥ 95 | –
CCn1nc(C)c(Cl)c1/C(OC(C)OC(=O)c1ccccc1)=C(\C#N)c1ccc(C(C)(C)C)cc1 (stereo not shown) [Compound 339] | ≥ 90 | ≥ 90 | ≥ 95 | –
CCn1nc(C)c(C)c1/C(OCOC(=O)C(F)(F)F)=C(\C#N)c1ccc(C(C)(C)C)cc1 [Compound 388] | ≥ 90 | ≥ 90 | ≥ 95 | –
CCOC(=O)OC(C)O/C(=C(/C#N)c1ccc(C(C)(C)C)cc1)c1c(Cl)c(C)nn1CC (stereo not shown) [Compound 772] | ≥ 90 | ≥ 90 | ≥ 95 | pest or weed control at 2 µg/mL [1, 8]: ≥ 90%; pest or weed control at 2 µg/mL [1, 11]: 100%; pest or weed control at 1.25 µg/mL [2, 12]: 100%; pest or weed control at 1.25 µg/mL [2, 9]: ≥ 90%; pest or weed control at 2 µg/mL [3, 10]: ≥ 90%; pest or weed control at 0.5 µg/mL [3, 13]: 90%
CC(=O)OC(C)O/C(=C(/C#N)c1ccc(C(C)(C)C)cc1)c1c(Cl)c(C)nn1C (stereo not shown) [Compound 101] | ≥ 90 | ≥ 90 | ≥ 95 | –
CCCCC(=O)OC(C)O/C(=C(/C#N)c1ccc(C(C)(C)C)cc1)c1c(Cl)c(C)nn1C (stereo not shown) [Compound 106] | ≥ 90 | ≥ 90 | ≥ 95 | –
C=CC(=O)OC(C)O/C(=C(/C#N)c1ccc(C(C)(C)C)cc1)c1c(Cl)c(C)nn1C (stereo not shown) [Compound 117] | ≥ 90 | ≥ 90 | ≥ 95 | –
COC(=O)OC(C)O/C(=C(/C#N)c1ccc(C(C)(C)C)cc1)c1c(Cl)c(C)nn1C (racemic) [Compound 675] | – | – | – | Death rate (%) ([1]; eggs, concentration 2 mg/L, parallel determination): 100%
